What all share (test): cell-based
One assay addresses T1, rα3β2 nAChR (Rattus norvegicus, UniProt P04757+P12390).
T1 construct: expressed in transfected cells; host or cells: Xenopus laevis oocytes injected with cRNA
The following applies: for inhibition at 10 µM: read-out: inhibition of rα3β2 at 10 μM.

The target of another assay is T2, rα3β4 nAChR (Rattus norvegicus, UniProt P04757+P12392).
T2 construct: expressed in transfected cells; host or cells: Xenopus laevis oocytes injected with cRNA
To be noted: for inhibition at 10 µM: read-out: inhibition of rα3β4 at 10 μM.

A further assay addresses T3, rα7 nAChR (Rattus norvegicus, UniProt Q05941).
T3 construct: expressed in transfected cells; host or cells: Xenopus laevis oocytes injected with cRNA

Positions of bridges follow the written chain, without caps; N, C: chain ends. Non-standard residues stand in square brackets, D forms with d. Residues, ends and D or L forms follow the SMILES beside them. Hyp = O=C(O)[C@@H]1C[C@@H](O)CN1

T2 sequence (P04757 26-499): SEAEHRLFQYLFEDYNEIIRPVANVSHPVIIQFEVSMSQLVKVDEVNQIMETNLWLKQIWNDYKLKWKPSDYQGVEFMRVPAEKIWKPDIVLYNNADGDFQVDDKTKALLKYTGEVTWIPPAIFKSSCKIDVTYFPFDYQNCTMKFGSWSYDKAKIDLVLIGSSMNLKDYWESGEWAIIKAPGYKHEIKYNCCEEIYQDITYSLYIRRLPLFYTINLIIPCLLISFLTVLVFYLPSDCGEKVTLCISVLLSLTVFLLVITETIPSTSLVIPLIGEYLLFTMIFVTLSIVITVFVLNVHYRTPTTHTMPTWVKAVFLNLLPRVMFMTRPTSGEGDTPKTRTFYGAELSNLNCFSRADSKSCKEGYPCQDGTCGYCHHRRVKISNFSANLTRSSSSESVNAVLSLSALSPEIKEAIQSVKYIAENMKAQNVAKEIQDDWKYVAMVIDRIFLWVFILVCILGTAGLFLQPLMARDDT
T2 sequence (P12392 22-495 limits assumed): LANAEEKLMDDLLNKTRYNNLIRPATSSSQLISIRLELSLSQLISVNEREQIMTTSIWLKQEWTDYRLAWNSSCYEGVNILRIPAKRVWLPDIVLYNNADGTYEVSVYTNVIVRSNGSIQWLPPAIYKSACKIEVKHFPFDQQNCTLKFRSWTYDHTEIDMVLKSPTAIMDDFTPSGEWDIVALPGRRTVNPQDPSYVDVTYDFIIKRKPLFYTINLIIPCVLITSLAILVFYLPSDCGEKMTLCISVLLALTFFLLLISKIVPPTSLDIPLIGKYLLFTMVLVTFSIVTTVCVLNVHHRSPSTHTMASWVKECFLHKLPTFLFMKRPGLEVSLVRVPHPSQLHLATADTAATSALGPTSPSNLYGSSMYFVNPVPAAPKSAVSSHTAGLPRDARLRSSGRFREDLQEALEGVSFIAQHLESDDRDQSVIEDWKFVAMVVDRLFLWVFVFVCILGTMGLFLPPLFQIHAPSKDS
T1 sequence (P04757 26-499): as the sequence (P04757 26-499) above
T1 sequence (P12390 25-500): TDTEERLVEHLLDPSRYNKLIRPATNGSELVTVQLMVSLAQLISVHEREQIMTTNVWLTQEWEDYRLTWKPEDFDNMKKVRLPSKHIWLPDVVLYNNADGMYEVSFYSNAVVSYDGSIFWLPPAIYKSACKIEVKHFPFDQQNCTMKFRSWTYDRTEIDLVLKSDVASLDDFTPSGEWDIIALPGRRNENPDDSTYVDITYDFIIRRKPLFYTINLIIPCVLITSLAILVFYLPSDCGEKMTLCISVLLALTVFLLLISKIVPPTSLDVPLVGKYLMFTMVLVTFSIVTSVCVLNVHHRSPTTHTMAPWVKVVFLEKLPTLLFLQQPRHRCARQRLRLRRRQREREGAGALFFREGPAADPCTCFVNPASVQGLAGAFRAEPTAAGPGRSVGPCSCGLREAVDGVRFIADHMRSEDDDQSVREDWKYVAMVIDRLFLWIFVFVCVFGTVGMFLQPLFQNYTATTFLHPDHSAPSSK
T3 sequence (Q05941 23-502): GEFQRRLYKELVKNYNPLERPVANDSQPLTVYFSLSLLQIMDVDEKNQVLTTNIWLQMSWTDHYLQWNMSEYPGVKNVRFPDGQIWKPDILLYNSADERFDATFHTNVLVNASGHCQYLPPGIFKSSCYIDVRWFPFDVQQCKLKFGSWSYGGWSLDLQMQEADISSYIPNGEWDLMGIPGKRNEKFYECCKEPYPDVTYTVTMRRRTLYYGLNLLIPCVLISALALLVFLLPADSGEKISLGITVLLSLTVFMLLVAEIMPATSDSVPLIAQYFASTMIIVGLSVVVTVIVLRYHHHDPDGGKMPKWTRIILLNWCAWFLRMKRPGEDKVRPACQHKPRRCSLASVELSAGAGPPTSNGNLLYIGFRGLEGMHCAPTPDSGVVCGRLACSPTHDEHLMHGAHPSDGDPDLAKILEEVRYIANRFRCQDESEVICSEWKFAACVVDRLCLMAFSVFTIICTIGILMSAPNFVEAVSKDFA

Regarding `CC[C@H](C)[C@@H]1NC(=O)[C@H](Cc2c[nH]cn2)NC(=O)[C@@H]2CCCN2C(=O)[C@H](CC(N)=O)NC(=O)[C@H](CC(N)=O)NC(=O)[C@H](C(C)C)NC(=O)[C@H](CC(N)=O)NC(=O)[C@@H]2CSSC[C@H](NC(=O)CN)C(=O)N[C@@H](CSSC[C@@H](C(N)=O)NC1=O)C(=O)N[C@@H](CO)C(=O)N[C@@H](C(C)C)C(=O)N1CCC[C@H]1C(=O)N[C@@H](C)C(=O)N2` [[H5V]RegIIA] (H-GCCSVPACNVNNPHIC-NH2; disulfide 2-8, 3-16), the values for the IC50 against rα3β2 nAChR, on rα3β4 nAChR and against rα7 nAChR were more than 10000 nM, 8800 nM and 97 nM, respectively.

As for `CC[C@H](C)[C@@H]1NC(=O)[C@H](Cc2cnc[nH]2)NC(=O)[C@@H]2CCCN2C(=O)[C@H](CC(N)=O)NC(=O)[C@H](CC(N)=O)NC(=O)[C@H](C(C)C)NC(=O)[C@H](CC(N)=O)NC(=O)[C@@H]2CSSC[C@H](NC(=O)CN)C(=O)N[C@@H](CSSC[C@@H](C(N)=O)NC1=O)C(=O)N[C@@H](CO)C(=O)N[C@@H](Cc1cnc[nH]1)C(=O)N1CCC[C@H]1C(=O)N[C@@H](C)C(=O)N2` [RegIIA, reference compound] (H-GCCSHPACNVNNPHIC-NH2; disulfide 2-8, 3-16), the IC50 was 36 nM against rα3β2 nAChR, 102 nM at rα3β4 nAChR and 43 nM against rα7 nAChR.

In the case of `CC[C@H](C)[C@@H]1NC(=O)[C@H](Cc2c[nH]cn2)NC(=O)[C@@H]2CCCN2C(=O)[C@H](CC(N)=O)NC(=O)[C@H](CC(N)=O)NC(=O)[C@H](C(C)C)NC(=O)[C@H](CC(N)=O)NC(=O)[C@@H]2CSSC[C@H](NC(=O)CN)C(=O)N[C@@H](CSSC[C@@H](C(N)=O)NC1=O)C(=O)N[C@@H](CO)C(=O)N[C@@H](Cc1c[nH]cn1)C(=O)N1C[C@H](O)C[C@H]1C(=O)N[C@@H](C)C(=O)N2` [[P6O]RegIIA] (H-GCCSH[Hyp]ACNVNNPHIC-NH2; disulfide 2-8, 3-16), the IC50 against rα3β2 nAChR, on rα3β4 nAChR and against rα7 nAChR was more than 10000 nM each time.

Consider `CC[C@H](C)[C@@H]1NC(=O)[C@H](Cc2c[nH]cn2)NC(=O)[C@@H]2CCCN2C(=O)[C@H](CC(N)=O)NC(=O)[C@H](CC(N)=O)NC(=O)[C@H](C(C)C)NC(=O)[C@H](CC(N)=O)NC(=O)[C@@H]2CSSC[C@H](NC(=O)CN)C(=O)N[C@@H](CSSC[C@@H](C(N)=O)NC1=O)C(=O)N[C@@H](CO)C(=O)N[C@@H](Cc1c[nH]cn1)C(=O)N[C@@H](C)C(=O)N[C@@H](C)C(=O)N2` [[P6A]RegIIA] (H-GCCSHAACNVNNPHIC-NH2; disulfide 2-8, 3-16), for which the IC50 against rα3β2 nAChR was more than 10000 nM; at rα3β4 nAChR, more than 10000 nM; on rα7 nAChR, 459 nM. For the same molecule, the inhibition at 10 µM at rα3β2 nAChR and at rα3β4 nAChR was less than 50% each time.

As for `CC[C@H](C)[C@@H]1NC(=O)[C@H](Cc2c[nH]cn2)NC(=O)[C@@H]2CCCN2C(=O)[C@H](CC(N)=O)NC(=O)[C@H](CC(N)=O)NC(=O)[C@H](C(C)C)NC(=O)[C@H](CC(N)=O)NC(=O)[C@@H]2CSSC[C@H](NC(=O)CN)C(=O)N[C@@H](CSSC[C@@H](C(N)=O)NC1=O)C(=O)N[C@@H](CO)C(=O)N[C@@H](CCC(=O)O)C(=O)N1CCC[C@H]1C(=O)N[C@@H](C)C(=O)N2` [[H5E]RegIIA] (H-GCCSEPACNVNNPHIC-NH2; disulfide 2-8, 3-16), the results for the half-inhibitory concentration (IC50) on rα3β2 nAChR, against rα3β4 nAChR and on rα7 nAChR were more than 10000 nM, more than 10000 nM and 441 nM, respectively.

Regarding `CC[C@H](C)[C@@H]1NC(=O)[C@H](Cc2c[nH]cn2)NC(=O)[C@@H]2CCCN2C(=O)[C@H](CC(N)=O)NC(=O)[C@H](CC(N)=O)NC(=O)[C@H](C(C)C)NC(=O)[C@H](CC(N)=O)NC(=O)[C@@H]2CSSC[C@H](NC(=O)CN)C(=O)N[C@@H](CSSC[C@@H](C(N)=O)NC1=O)C(=O)N[C@@H](CO)C(=O)NCC(=O)N1CCC[C@H]1C(=O)N[C@@H](C)C(=O)N2` [[H5G]RegIIA] (H-GCCSGPACNVNNPHIC-NH2; disulfide 2-8, 3-16), the values for the IC50 against rα3β2 nAChR, against rα3β4 nAChR and on rα7 nAChR were more than 10000 nM, more than 10000 nM and 3540 nM, respectively.

As for `CC[C@H](C)[C@@H]1NC(=O)[C@H](Cc2c[nH]cn2)NC(=O)[C@@H]2CCCN2C(=O)[C@H](CC(N)=O)NC(=O)[C@H](CC(N)=O)NC(=O)[C@H](C(C)C)NC(=O)[C@H](CC(N)=O)NC(=O)[C@@H]2CSSC[C@H](NC(=O)CN)C(=O)N[C@@H](CSSC[C@@H](C(N)=O)NC1=O)C(=O)N[C@@H](CO)C(=O)N[C@@H](C)C(=O)N1CCC[C@H]1C(=O)N[C@@H](C)C(=O)N2` [[H5A]RegIIA] (H-GCCSAPACNVNNPHIC-NH2; disulfide 2-8, 3-16), the IC50 against rα3β2 nAChR was more than 10000 nM; against rα3β4 nAChR, more than 10000 nM; against rα7 nAChR it was 446 nM. Also, the inhibition at 10 µM at rα3β2 nAChR and at rα3β4 nAChR was less than 50% throughout.

Consider `CC[C@H](C)[C@@H]1NC(=O)[C@H](Cc2c[nH]cn2)NC(=O)[C@@H]2CCCN2C(=O)[C@H](CC(N)=O)NC(=O)[C@H](CC(N)=O)NC(=O)[C@H](C(C)C)NC(=O)[C@H](CC(N)=O)NC(=O)[C@@H]2CSSC[C@H](NC(=O)CN)C(=O)N[C@@H](CSSC[C@@H](C(N)=O)NC1=O)C(=O)N[C@@H](C)C(=O)N[C@@H](Cc1c[nH]cn1)C(=O)N1CCC[C@H]1C(=O)N[C@@H](C)C(=O)N2` [[S4A]RegIIA] (H-GCCAHPACNVNNPHIC-NH2; disulfide 2-8, 3-16), for which the IC50 against rα3β2 nAChR was found to be 34 nM; on rα3β4 nAChR, 95 nM; on rα7 nAChR, 39 nM.

For `CC[C@H](C)[C@@H]1NC(=O)[C@H](Cc2c[nH]cn2)NC(=O)[C@@H]2CCCN2C(=O)[C@H](CC(N)=O)NC(=O)[C@H](CC(N)=O)NC(=O)[C@H](C(C)C)NC(=O)[C@H](CC(N)=O)NC(=O)[C@@H]2CSSC[C@H](NC(=O)CN)C(=O)N[C@@H](CSSC[C@@H](C(N)=O)NC1=O)C(=O)N[C@@H](CO)C(=O)N[C@@H](Cc1c[nH]cn1)C(=O)N1CCC[C@H]1C(=O)NCC(=O)N2` [[A7G]RegIIA] (H-GCCSHPGCNVNNPHIC-NH2; disulfide 2-8, 3-16), the values for the IC50 at rα3β2 nAChR, at rα3β4 nAChR and against rα7 nAChR were more than 10000 nM, 964 nM and 600 nM, respectively.

For the molecule `CC[C@H](C)[C@@H]1NC(=O)[C@H](Cc2c[nH]cn2)NC(=O)[C@@H]2CCCN2C(=O)[C@H](CC(N)=O)NC(=O)[C@H](CC(N)=O)NC(=O)[C@H](C(C)C)NC(=O)[C@H](CC(N)=O)NC(=O)[C@@H]2CSSC[C@H](NC(=O)[C@H](C)N)C(=O)N[C@@H](CSSC[C@@H](C(N)=O)NC1=O)C(=O)N[C@@H](CO)C(=O)N[C@@H](Cc1c[nH]cn1)C(=O)N1CCC[C@H]1C(=O)N[C@@H](C)C(=O)N2` [[G1A]RegIIA] (H-ACCSHPACNVNNPHIC-NH2; disulfide 2-8, 3-16), the values for the half-maximal inhibitory concentration (IC50) against rα3β2 nAChR, against rα3β4 nAChR and at rα7 nAChR were 90 nM, 132 nM and 286 nM, respectively.

Consider `CC[C@H](C)[C@@H]1NC(=O)[C@H](Cc2c[nH]cn2)NC(=O)[C@@H]2CCCN2C(=O)[C@H](CC(N)=O)NC(=O)[C@H](CC(N)=O)NC(=O)[C@H](C(C)C)NC(=O)[C@H](CC(N)=O)NC(=O)[C@@H]2CSSC[C@H](NC(=O)CN)C(=O)N[C@@H](CSSC[C@@H](C(N)=O)NC1=O)C(=O)N[C@@H](CO)C(=O)N[C@@H](CC(C)C)C(=O)N1CCC[C@H]1C(=O)N[C@@H](C)C(=O)N2` [[H5L]RegIIA] (H-GCCSLPACNVNNPHIC-NH2; disulfide 2-8, 3-16), for which the IC50 against rα3β2 nAChR, at rα3β4 nAChR and on rα7 nAChR was more than 10000 nM in each case.

Take `CC[C@H](C)[C@@H]1NC(=O)[C@H](Cc2c[nH]cn2)NC(=O)[C@@H]2CCCN2C(=O)[C@H](CC(N)=O)NC(=O)[C@H](CC(N)=O)NC(=O)[C@H](C(C)C)NC(=O)[C@H](CC(N)=O)NC(=O)[C@@H]2CSSC[C@H](NC(=O)CN)C(=O)N[C@@H](CSSC[C@@H](C(N)=O)NC1=O)C(=O)N[C@@H](CO)C(=O)N[C@@H](CO)C(=O)N1CCC[C@H]1C(=O)N[C@@H](C)C(=O)N2` [[H5S]RegIIA] (H-GCCSSPACNVNNPHIC-NH2; disulfide 2-8, 3-16): the IC50 was more than 10000 nM against rα3β2 nAChR, 5730 nM on rα3β4 nAChR and 100 nM at rα7 nAChR.
